Source: patent EP4647433A1, “SHP2 INHIBITOR AND USES THEREOF” (Kanaph Therapeutics Inc., priority 2023, dated 2024)

Experiments:
[1] = Brain-plasma Pharmacokinetics; settings: male, CD-1 (ICR), mouse, brain/plasma, 20 mg/kg
Procedure: (§1) Nine male CD-1 mice (ICR mouse) aged 6 to 9 weeks were treated with the compounds according to the Examples at a concentration of 20 mg/kg. 0.025 mL of blood and brain tissue were collected at 1 hour, 8 hours, and 24 hours post-treatment, respectively. The collected blood was placed in an EDTA-K2 tube, centrifuged at 4°C at 3,200 x g for 10 minutes, and the supernatant plasma was collected. The brain tissue samples were collected immediately after euthanizing the CD-1 mice after blood collection and performing cardiac perfusion with cold saline. After collection, the brain tissues were washed with cold saline, wiped and dried, weighed, and homogenized using a homogenization buffer (15 mM PBS (pH 7.4): MeOH = 2:1) at a ratio of 1:3 (1 g of tissue to 3 mL of buffer, dilution ratio 4). Plasma and homogenized brain tissue samples were each transferred to a polypropylene microcentrifuge tube and stored at -60°C or lower. The concentration of compounds distributed in plasma and brain tissue was analyzed using LC-MS/MS, and the distribution in brain tissue compared to plasma was calculated as follows. Brain-to-plasma ratio = AUC(0-t) brain tissue /AUC(0-t) plasma [formula]
(§2) In the Brain-plasma Pharmacokinetics assay, when a brain-to-plasma ratio value was 0.05 or more and less than 0.1, + was indicated, when a brain-to-plasma ratio value was 0.1 or more and less than 0.25, ++ was indicated, and when a brain-to-plasma ratio value was more than 0.25, +++ was indicated.

[2] = target: T1, SHP2 (Homo sapiens, UniProt Q06124); test: Phosphatase assay (PTPase assay, DiFMUP substrate); type: biochemical; settings: full length SHP2 100 pM activated with SHP2 activating peptide, DiFMUP 80 µM, 2 hours; read-out: PTPase assay (IC50)
T1 construct: SHP2 (full length, diluted to 100 pM final concentration in reaction buffer, BPS bioscience, US); purchased BPS bioscience, US
T1 sequence (Q06124 1-593): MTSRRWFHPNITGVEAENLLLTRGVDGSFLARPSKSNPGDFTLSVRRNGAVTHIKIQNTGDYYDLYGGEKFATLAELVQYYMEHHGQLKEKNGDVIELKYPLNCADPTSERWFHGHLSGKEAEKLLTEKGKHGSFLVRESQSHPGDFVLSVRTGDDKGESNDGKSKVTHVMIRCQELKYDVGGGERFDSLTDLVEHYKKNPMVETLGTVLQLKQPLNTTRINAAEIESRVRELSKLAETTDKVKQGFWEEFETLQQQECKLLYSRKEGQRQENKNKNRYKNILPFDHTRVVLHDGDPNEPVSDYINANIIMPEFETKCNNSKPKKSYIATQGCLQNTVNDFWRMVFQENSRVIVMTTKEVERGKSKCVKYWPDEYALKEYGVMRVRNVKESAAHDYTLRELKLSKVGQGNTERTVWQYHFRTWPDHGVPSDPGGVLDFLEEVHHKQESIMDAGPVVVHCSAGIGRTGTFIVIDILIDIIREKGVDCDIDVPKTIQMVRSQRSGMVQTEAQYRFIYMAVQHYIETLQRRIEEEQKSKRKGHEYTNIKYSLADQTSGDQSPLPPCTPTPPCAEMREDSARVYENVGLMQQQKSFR
How it was run: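 Full-length SHP2 at 100 pM final was activated with SHP2 activating peptide for 30 min in HEPES buffer pH 7.2 with NaCl, KCl, EDTA, DTT and P-20, then compound (0.6 nM–10 µM) added. DiFMUP (80 µM) was reacted for 2 h in total; fluorescence read at 340/450 nm and IC50 fitted from concentration-response.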

[3] = system: phospho-ERK; test: phospho-ERK assay (AlphaLisa) in H358 cells; type: cell-based; settings: Homo sapiens, NCI-H358, 1.5 hours incubation, read-out: pERK assay (IC50)
Procedure: H358 [20,000 cell/well] was contained in 40 µL of the cell culture solution (RPMI, 10% FBS, penicillin, streptomycin) and placed on a 384-well plate. After 24 hours, the serially diluted compound according to the Examples (concentration of minimum 0.13 nM, maximum 10 µM) was contained in 10 µL of the cell culture solution, put into wells containing cells, and incubated in a cell incubator for 1.5 hours. As a positive control group, the selective SHP2 inhibitor, TNO155 (Chemietek, US; concentration ranging from 0.13 nM to 10 µM) was used.
Thereafter, phospho-ERK was labeled using an AlphaLisa system from PerkinElmer according to the manufacturer's instructions, and then fluorescence (680 nm excitation wavelength, 615 nm emission wavelength) values were measured using a Varioskan equipment from Thermo. IC50 values were obtained using Graphad's Prism from the measured values depending on the concentration.
Intracellular SHP2 activity can be confirmed by measuring the degree of phosphorylation of ERK (extracellular signal regulated kinase), which represents Ras/Raf/ERK, a downstream signal pathway of SHP2. Inhibition of ERK phosphorylation by SHP2 inhibitors was confirmed through phospho-ERK analysis, which confirmed that the SHP2 inhibitors of the present disclosure have excellent activity in inhibiting ERK phosphorylation mediated by SHP2.

[4] = system: H358 cells; test: Cell viability (3D spheroid, 3D CellTiter-Glo); type: cell-based; settings: Homo sapiens, NCI-H358, 120 h; H358 spheroids, 5 days treatment
How it was run: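 H358 human NSCLC cells (4 x 10^3/well) grown 72 h in RPMI-1640 with 10% FBS to form spheroids, then treated with serially diluted compounds (1.5 nM–10 µM) for 5 days. Viability read by 3D CellTiter-Glo luminescence after 25 min at room temperature; IC50 from concentration–response.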

[5] = in vivo; settings: mouse, 20 mg/kg
Procedure: as §1, §2

| Structure (SMILES) | Kp at 24 h [1] | IC50 [2] [nM] | IC50 [3] [nM] | IC50 [4] [nM] | Kp at 24 h [5] |
| --- | --- | --- | --- | --- | --- |
| Cn1ccc2ccc(Sc3cnc(N4CCC5(CC4)Cc4ccccc4[C@H]5N)cn3)c(Cl)c2c1=O [Example 41, (S)-7-((5-(1-amino-1,3-dihydrospiro[indene-2,4'-piperidin]-1'-yl)pyrazin-2-yl)thio)-8-chloro-2-methylisoquinolin-1(2H)-one] | > 0.25 | < 3 | 45 to 1500 | 10 to 50 | – |
| COC(C)(C)Cn1ccc2ccc(Sc3cnc(N4CCC5(CC4)Cc4ccccc4[C@H]5N)cn3)c(Cl)c2c1=O [Example 43, (S)-7-((5-(1-amino-1,3-dihydrospiro[indene-2,4'-piperidin]-1'-yl)pyrazin-2-yl)thio)-8-chloro-2-(2-methoxy-2-methylpropyl)isoquinolin-1(2H)-one] | > 0.25 | < 3 | 45 to 1500 | < 10 | – |
| COC(C)(C)Cn1ccc2ccc(Sc3cnc(N4CCC5(CC4)Cc4ccccc4[C@H]5N)cn3)cc2c1=O [Example 44, (S)-7-((5-(1-amino-1,3-dihydrospiro[indene-2,4'-piperidin]-1'-yl)pyrazin-2-yl)thio)-2-(2-methoxy-2-methylpropyl)isoquinolin-1(2H)-one] | > 0.25 | 3 to 100 | 45 to 1500 | < 10 | – |
| Cn1ccc2ccc(Sc3cnc(N4CCC5(CC4)Cc4ccccc4[C@H]5N)cn3)cc2c1=O [Example 45, (S)-7-((5-(1-amino-1,3-dihydrospiro[indene-2,4'-piperidin]-1'-yl)pyrazin-2-yl)thio)-2-methylisoquinolin-1(2H)-one] | 0.1 to 0.25 | < 3 | 45 to 1500 | < 10 | – |
| Cn1ccc2ccc(Sc3ncc(N4CCC5(CC4)Cc4ccccc4[C@H]5N)nc3N)c(Cl)c2c1=O [Example 47, (S)-7-((3-amino-5-(1-amino-1,3-dihydrospiro[indene-2,4'-piperidin]-1'-yl)pyrazin-2-yl)thio)-8-chloro-2-methylisoquinolin-1(2H)-one] | 0.1 to 0.25 | < 3 | < 45 | < 10 | – |
| CC(C)n1ccc2ccc(Sc3ncc(N4CCC5(CC4)Cc4ccccc4[C@H]5N)nc3N)c(Cl)c2c1=O [Example 48, (S)-7-((3-amino-5-(1-amino-1,3-dihydrospiro[indene-2,4'-piperidin]-1'-yl)pyrazin-2-yl)thio)-8-chloro-2-isopropylisoquinolin-1(2H)-one] | 0.1 to 0.25 | < 3 | 45 to 1500 | < 10 | – |
| COC(C)Cn1ccc2ccc(Sc3ncc(N4CCC5(CC4)Cc4ccccc4[C@H]5N)nc3N)c(Cl)c2c1=O (stereo partly drawn) [Example 49] | 0.1 to 0.25 | < 3 | < 45 | < 10 | – |
| COC(C)(C)Cn1cnc2ccc(Sc3cnc(N4CCC5(CC4)Oc4ccccc4[C@H]5N)cn3)c(Cl)c2c1=O [Example 50, (R)-6-((5-(3-amino-3H-spiro[benzofuran-2,4'-piperidin]-1'-yl)pyrazin-2-yl)thio)-5-chloro-3-(2-methoxy-2-methylpropyl)quinazolin-4(3H)-one] | – | – | – | < 10 | > 0.25 |
